{
  "source": "patent US20120302636A1",
  "about": "“METHOD OF TREATING A DISORDER ASSOCIATED WITH MTP” (priority 2009, published 2012)",
  "key": {"[1]": {"tested_on": "serum lipid levels", "test": "Example 5: fixed-dose or escalating doses 12 weeks in hyperlipidemia, efficacy", "type": "in vivo, human", "conditions": "for LDL-C level decrease: dose escalation group", "method": "Fifty-two Japanese patients with hyperlipidemia (LDL-C between 140 and 220 mg/dL; TG≦400 mg/dL) participated in the study. […] One group received a fixed dose of 2 mg per tablet through the entire study. The other group received escalating doses of 0.5 mg (weeks 1-4), 1 mg (weeks 5-8), and 2 mg (weeks 9-12). For the efficacy analysis, 50 subjects were observed (25 in the fixed-dose group and 25 in the dose escalation group).\nThe objective of this study was preliminary evaluation of the efficacy (based on serum lipid levels), safety, and pharmacokinetics of the compound of formula (I) administered orally twice daily after breakfast and supper for 12 weeks as a fixed dose (4 mg/day) or escalating dose (1 mg/day, 2 mg/day and 4 mg/day) regimen in patients with hyperlipidemia."}, "[2]": {"tested_on": "serum lipid levels", "test": "Example 6: serum lipid levels / pharmacodynamics", "type": "in vivo, human", "excerpt": "Originally, the study was planned as 4 sequential cohorts of healthy male Caucasian subjects (Cohorts 1 to 4) followed by a cohort of male Caucasian patients with elevated triglycerides (HTG patients, Cohort 5). An additional cohort of healthy male Caucasian subjects (Cohort 4.1) was enrolled into the study (6 cohorts in total). The cohorts were as follows: Cohorts 1 to 4.1 had healthy Caucasian males, aged 18-45 years with a body weight of 60-100 kg and body mass index (BMI) between 19-28 kg/m^2 at screening and fasting triglycerides less than 1.69 mmol/L (less than 150 mg/dL) at the screening visit and Day-3. Cohort 5 had Caucasian males, aged 18-50 years with a body weight of 60-115 kg and BMI less than 35 kg/m^2 at screening and with elevated fasting triglycerides (TG≧1.69 mmol/L and <5.62 mmol/L; ≧150 mg/dL and <500 mg/dL) at the screening visit and Day-3.\nThe planned treatment for Cohorts 1 to 4 was twice daily administration of 5 mg, 10 mg or 15 mg the compound of formula (I)/placebo, or once daily administration of 30 mg the compound of formula (1)/placebo. […] As only the compound of formula (I) 5 mg capsules were supplied for this study, doses were administered once daily to determine the maximum tolerated dose, and the planned doses for each subsequent cohort were amended based on the safety and tolerability data obtained from the preceding cohort. The dose level and dosing schedule planned for the patients in Cohort 5 was determined by the maximum tolerated dose and dosing schedule as reported from the planned Cohorts 1 to 4.1.\nTwelve healthy male Caucasian subjects were enrolled in each of Cohorts 1 to 4.1; dose cohorts were randomized in a ratio 9:3 to receive the compound of formula (I) or placebo, respectively, at the dose level associated with that cohort. Twelve male Caucasian patients with elevated triglycerides were randomized in a ratio of 8:4 to receive the compound of formula (I) or placebo, respectively, at the maximum tolerated dose level and dosing schedule."}, "[3]": {"tested_on": "serum lipid levels", "test": "Example 7: serum lipid levels", "type": "in vivo, human", "method": "Postprandial levels of lipid parameters after administration of the compound of formula (I) were evaluated using the change from preceding timepoint. […] Intraday changes and changes from pretreatment baseline also indicate that the absorption of TG, VLDL-TG, and chylomicron-TG were delayed compared to placebo. This delayed absorption is consistent with a previous pharmacology study in healthy male Japanese subjects. The postprandial results were interpreted with caution as the delay in absorption can impact the calculation regarding the magnitude of the postprandial change in triglycerides. However, the suppression of the expected increases in postprandial TG, VLDL-TG, and chylomicron-TG, which is indicative of MTP inhibition, clearly supports the mechanism of action of the compound of formula (I). The VLDL-TG changes observed in this study are consistent with previous studies (Examples 2 and 6) where the compound of formula (I) was administered for up to 14 days in healthy or hypertriglyceridemic Caucasian and Japanese male subjects. In general, the compound of formula (I) levels were also low or non-quantifiable in these studies. […] Therefore, the compound of formula (I) is not believed to directly affect the liver."}, "[4]": {"test": "Example 9: safety and tolerability", "type": "in vivo, human", "method": "The study enrolled 16 obese male subjects (18-65 years of age (inclusive), with a body mass index (BMI) >30.0 kg/m^2 and <40.0 kg/m^2) who participated in two treatment periods. During Period 1, 8 subjects were randomized to receive 3.5 mg of the compound of formula (I), and 8 subjects were randomized to receive placebo. The compound of formula (I) or placebo was administered twice daily (BID), 30 minutes after the start of breakfast and dinner, for 10 days. All subjects were discharged from the clinic at the end of Period 1 for a 9±2 day discharge period. Subjects then returned for treatment during Period 2, in which (i) the group previously receiving the compound of formula (I) now received placebo, and (ii) the group previously receiving placebo now received the compound of formula (I), in accordance with the protocol described above."}, "[5]": {"test": "Example 7: weight loss and tolerability in obese subjects", "conditions": "for mean changes from baseline in weight: 2 weeks", "experimental": "This example involved a clinical study of the compound of formula (I), which was a randomized, double-blind, placebo-controlled, ascending dose study to evaluate the safety, tolerability and pharmacokinetics/pharmacodynamics of the compound of formula (I) tablets administered twice daily for two weeks in obese subjects.\nThe subjects were separated into four arms of nine (one with ten) test subjects (which were administered the compound of formula (I)) and three placebo subjects."}},
  "data": [
    {"smiles": "CCOC(=O)C(COC(=O)Cc1ccc(NC(=O)c2ccccc2-c2ccc(C(F)(F)F)cc2)c(C(=O)N(C)C)c1)(C(=O)OCC)c1ccccc1", "note": "[compound of formula (I), diethyl 2-((2-(3-(dimethylcarbamoyl)-4-(4′-(trifiuoromethyl)biphenyl-2-ylcarboxamido)phenyl)acetoxy)methyl)-2-phenyl malonate]", "values": [
      {"measurement": "TG level", "setting": "[1]; both groups", "value": "tended to increase"},
      {"measurement": "LDL-C level decrease", "setting": "[1]; Week 10 (4 mg/day)", "value": "−7.24", "unit": "%"},
      {"measurement": "LDL-C level decrease", "setting": "[1]; Week 12 (4 mg/day)", "value": "−7.12", "unit": "%"},
      {"measurement": "LDL-C level maximum decrease", "setting": "[1]; fixed-dose group (2 mg BID), Week 2", "value": "−6.38", "unit": "%"},
      {"measurement": "LDL-C level change", "setting": "[1]; fixed-dose group, after Week 2 through Week 12", "value": "−1.96 to −5.98", "unit": "%"},
      {"measurement": "effects on LDL-C, HDL-C, VLDL-C, and VLDL-TG vs QD regimens", "setting": "[2]; 5 mg BID", "value": "more marked effects"},
      {"measurement": "expected postprandial increase of TG and chylomicron-TG", "setting": "[2]; healthy subjects and patients with high TG", "value": "suppressed"},
      {"measurement": "campesterol (marker of cholesterol absorption)", "setting": "[2]; in vivo", "value": "affects campesterol"},
      {"measurement": "lathosterol (marker of cholesterol synthesis by the liver)", "setting": "[2]; in vivo", "value": "not lathosterol"},
      {"measurement": "impact on triglyceride-rich lipoproteins (ApoCII, ApoCIII, VLDL-TG, VLDL-C)", "setting": "[2]; once-daily regimen", "value": "no discernible impact"},
      {"measurement": "postprandial estimates for TG, VLDL-TG, and chylomicron-TG", "setting": "[3]; following breakfast and dinner", "value": "substantially lower when compared with placebo"},
      {"measurement": "decrease in HDL-C levels", "setting": "[3]; in vivo", "value": "not as pronounced as LDL-C, nor was it statistically significant"},
      {"measurement": "pretreatment baseline adjusted values of TC, LDL-C, LDL-TG, ApoB, and phospholipids", "setting": "[3]; in vivo", "value": "significant reduction"},
      {"measurement": "deaths or serious adverse events", "setting": "[4]; 3.5 mg BID, 10 days", "value": "no deaths or serious adverse events"},
      {"measurement": "subjects with at least one treatment-emergent adverse event", "setting": "[4]; 3.5 mg BID, 10 days", "value": 53.3, "unit": "%"},
      {"measurement": "safety and tolerability", "setting": "[4]; 3.5 mg BID, 10 days, fed conditions", "value": "safe and well-tolerated"},
      {"measurement": "hematology, biochemistry, urinalysis, vital sign (including weight), ECG changes from baseline", "setting": "[4]; in vivo", "value": "No clinically meaningful mean changes"},
      {"measurement": "mean changes from baseline in weight", "setting": "[5]; 1 mg BID", "value": -0.31, "unit": "kg"},
      {"measurement": "average weight loss", "setting": "[5]; 1 mg BID, 14 days", "value": 0.31, "unit": "kg"},
      {"measurement": "mean changes from baseline in weight", "setting": "[5]; 2.5 mg BID", "value": -0.68, "unit": "kg"},
      {"measurement": "average weight loss", "setting": "[5]; 2.5 mg BID, 14 days", "value": 0.68, "unit": "kg"},
      {"measurement": "mean changes from baseline in weight", "setting": "[5]; 3.5 mg BID", "value": -1.39, "unit": "kg"},
      {"measurement": "average weight loss", "setting": "[5]; 3.5 mg BID, 14 days", "value": 1.39, "unit": "kg"},
      {"measurement": "average weight loss", "setting": "[5]; 5 mg BID, 14 days", "value": 2.07, "unit": "kg"},
      {"measurement": "average weight loss", "setting": "[5]; 5 mg BID, Day 10 (n=9)", "value": 2.32, "unit": "kg"},
      {"measurement": "subjects who withdrew due to GI-related adverse events prior to Day 14", "setting": "[5]; 5 mg dose group", "value": "six"},
      {"measurement": "tolerability at 5 mg BID", "setting": "[5]; obese subjects", "value": "not at 5 mg BID"},
      {"measurement": "well tolerated doses", "setting": "[5]; obese subjects", "value": "up to 3.5 mg BID"}
    ]}
  ]
}
